According to ChEMBL document CHEMBL4390668, “Discovery and Structural Optimization of Acridones as Broad-Spectrum Antimalarials” (J Med Chem, 2019):

Assays:
[1] = Selectivity index, ratio of IC50 for human HepG2 cells to IC50 for chloroquine-sensitive Plasmodium falciparum D6 infected in human erythrocytes; assay type: toxicity, cell-based; details: read-out: Ratio IC50
Plasmodium falciparum [2] = assay: Antimalarial activity against atovaquone-resistant Plasmodium falciparum Tm90-C2B infected in human erythrocytes by SYBR green 1-based fluorescence assay; assay type: functional, organism-based
Plasmodium berghei = assay: Antimalarial activity against luciferase-expressing Plasmodium berghei ANKA 676m1cl1 sporozoites infected in human HepG2A16 cells measured after 45 hrs by luciferase-luciferin based reporter assay; assay type: functional, organism-based; details: ANKA 676m1cl1, HepG2A16, 45 h
[3] = Half life in mouse liver microsomes at 1 uM by LC-MS analysis; assay type: ADME, Microsome
Plasmodium falciparum [4] = assay: Antimalarial activity against multidrug-resistant Plasmodium falciparum Dd2 infected in human erythrocytes by SYBR green 1-based fluorescence assay; assay type: functional, organism-based
[5] = Half life in human liver microsomes at 1 uM by LC-MS analysis; assay type: ADME, Microsome
Plasmodium falciparum [6] = assay: Antimalarial activity against chloroquine-sensitive Plasmodium falciparum D6 infected in human erythrocytes by SYBR green 1-based fluorescence assay; assay type: functional, organism-based
HepG2 = assay: Cytotoxicity against human HepG2 cells measured after 24 to 36 hrs by resazurin dye based fluorescence assay; assay type: cell-based
Plasmodium falciparum [7] = assay: Antimalarial activity against multidrug-resistant Plasmodium falciparum 7G8 infected in human erythrocytes by SYBR green 1-based fluorescence assay; assay type: functional, organism-based

SMILES | selectivity ratio [1] | IC50 (Plasmodium falciparum [2]) | IC50 (Plasmodium berghei) | half-life at 1 µM [3] | IC50 (Plasmodium falciparum [4]) | half-life at 1 µM [5] | IC50 (Plasmodium falciparum [6]) | IC50 (HepG2) | IC50 (Plasmodium falciparum [7])
CCN(CC)CCCCCOc1ccc2c(=O)c3ccc(Cl)cc3[nH]c2c1 | 58 | 1040 nM | 202 nM | > 60 min | 511 nM | > 60 min | 540 nM | 31300 nM | 
CCN(CC)CCOc1ccc2c(=O)c3ccc(F)cc3[nH]c2c1 | 127 | 1670 nM | 119 nM | > 60 min | 485 nM | > 60 min | 377 nM | 47900 nM | 353 nM
CCCN(CCC)CCOc1ccc2c(=O)c3cc(Cl)ccc3[nH]c2c1 | > 27800 | 317 nM | 12.5 nM | 16 min | 15 nM | 12 min | 3.6 nM | > 100000 nM | 9.2 nM
CCCN(CCC)CCOc1ccc2c(=O)c3ccc(Cl)cc3[nH]c2c1 | 16300 | 1540 nM | 14.8 nM | > 60 min | 11 nM | > 60 min | 2.5 nM | 40600 nM | 9.1 nM
CCN(CC)CCOc1ccc2c(=O)c3cc(Cl)ccc3[nH]c2c1 | > 473 | 1160 nM | 221 nM |  | 351 nM |  |  | > 100000 nM | 304 nM
O=c1c2ccc(Cl)cc2[nH]c2cc(OCCN3CCCC3)ccc12 | 48 | 1500 nM | 456 nM |  | 781 nM |  | 529 nM | 25500 nM | 959 nM
O=c1c2ccc(OCCCCl)cc2[nH]c2cc(Cl)cc(Cl)c12 | > 45500 | 70 nM | 523 nM | 55 min | 2.9 nM | > 60 min | 2.2 nM | > 100000 nM | 6.6 nM
CCN(CC)CCOc1ccc2c(=O)c3ccccc3[nH]c2c1 | 72 | 2530 nM | 503 nM |  | 1190 nM |  | 1350 nM | 96800 nM | 
CC(C)(C)NCCCCOc1ccc2c(=O)c3c(F)cc(F)cc3[nH]c2c1 | 1350 | > 2500 nM | 362 nM | > 60 min | 265 nM | > 60 min | 75 nM | 101000 nM | 14 nM
O=c1c2ccc(OCCCl)cc2[nH]c2ccc(Cl)c(Cl)c12 | > 40000 | 1380 nM | 183 nM | > 60 min | 27 nM | > 60 min | 2.5 nM | > 100000 nM | 45 nM
CCCN(CCC)CCOc1ccc2c(=O)c3c(Cl)cc(OC)cc3[nH]c2c1 | > 308000 | 81 nM | 2.9 nM | 10 min | 4.2 nM | 7 min | 0.65 nM | > 200000 nM | 6.2 nM
CCCN(CCC)CCOc1ccc2[nH]c3cc(F)cc(F)c3c(=O)c2c1 | 50600 | 270 nM | 0.75 nM |  | 1 nM |  | 0.4 nM | 20200 nM | 3.2 nM
O=c1c2ccc(OCCCC(F)(F)F)cc2[nH]c2cc(F)cc(F)c12 | > 200000 | 40 nM | 48 nM | 59 min | 0.033 nM | > 60 min | 0.027 nM | > 200000 nM | 0.5 nM
CCCN(CCC)CCOc1ccc2[nH]c3cc(OC)cc(F)c3c(=O)c2c1 | 37700 | 47 nM | 0.65 nM |  | 0.13 nM |  | 0.7 nM | 26400 nM | 0.42 nM
CCCCNCCCOc1ccc2c(=O)c3cc(Cl)c(Cl)cc3[nH]c2c1 | 2490 | 177 nM |  |  | 145 nM |  | 36 nM | 75200 nM | 161 nM
